According to patent US9580442B2, “Tricyclic heterocyclic compounds as phosphoinositide 3-kinase inhibitors” (Karus Therapeutics Limited, priority 2009, dated 2017):
Like-named read-outs stand apart in the source and are kept apart here.

Experiments:
PI3K p110α = PI3K p110α (Homo sapiens (Human), UniProt P42336); assay: PI3K isoform biochemical assay, p110α
PI3K p110β = PI3K p110β (Homo sapiens (Human), UniProt P42338); assay: PI3K isoform biochemical assay, p110β
PI3K p110δ = PI3K p110δ (Homo sapiens (Human), UniProt O00329); assay: PI3K isoform biochemical assay, p110δ
PI3K p110δ, sequence (O00329 whole entry, canonical isoform): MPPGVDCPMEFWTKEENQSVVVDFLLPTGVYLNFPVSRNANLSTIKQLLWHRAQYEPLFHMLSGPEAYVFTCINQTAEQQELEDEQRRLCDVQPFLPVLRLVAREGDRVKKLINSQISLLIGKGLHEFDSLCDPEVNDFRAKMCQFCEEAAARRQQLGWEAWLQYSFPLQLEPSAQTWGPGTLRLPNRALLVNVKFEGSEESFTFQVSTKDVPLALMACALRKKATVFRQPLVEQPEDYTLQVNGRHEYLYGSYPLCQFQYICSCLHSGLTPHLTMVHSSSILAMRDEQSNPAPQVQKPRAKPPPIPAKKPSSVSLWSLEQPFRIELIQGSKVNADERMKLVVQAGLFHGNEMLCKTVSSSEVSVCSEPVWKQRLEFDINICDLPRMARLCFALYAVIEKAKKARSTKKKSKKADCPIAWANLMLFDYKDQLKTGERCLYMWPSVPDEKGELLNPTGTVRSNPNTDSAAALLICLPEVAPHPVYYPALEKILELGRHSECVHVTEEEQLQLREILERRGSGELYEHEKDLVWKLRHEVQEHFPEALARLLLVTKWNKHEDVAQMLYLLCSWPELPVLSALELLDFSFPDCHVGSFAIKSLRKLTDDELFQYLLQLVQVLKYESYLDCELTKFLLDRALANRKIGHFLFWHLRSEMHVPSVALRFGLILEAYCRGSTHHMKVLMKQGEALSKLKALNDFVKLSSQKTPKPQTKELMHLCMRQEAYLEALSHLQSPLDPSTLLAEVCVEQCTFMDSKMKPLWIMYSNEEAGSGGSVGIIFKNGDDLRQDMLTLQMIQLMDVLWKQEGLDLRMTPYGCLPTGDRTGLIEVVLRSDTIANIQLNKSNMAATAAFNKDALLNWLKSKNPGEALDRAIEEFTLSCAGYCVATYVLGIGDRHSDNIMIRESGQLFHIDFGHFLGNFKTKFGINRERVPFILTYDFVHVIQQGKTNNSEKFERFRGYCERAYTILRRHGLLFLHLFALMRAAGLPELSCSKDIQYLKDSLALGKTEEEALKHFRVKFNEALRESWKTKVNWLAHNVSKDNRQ
PI3K p110δ, sequence (P27986 whole entry partner, canonical isoform): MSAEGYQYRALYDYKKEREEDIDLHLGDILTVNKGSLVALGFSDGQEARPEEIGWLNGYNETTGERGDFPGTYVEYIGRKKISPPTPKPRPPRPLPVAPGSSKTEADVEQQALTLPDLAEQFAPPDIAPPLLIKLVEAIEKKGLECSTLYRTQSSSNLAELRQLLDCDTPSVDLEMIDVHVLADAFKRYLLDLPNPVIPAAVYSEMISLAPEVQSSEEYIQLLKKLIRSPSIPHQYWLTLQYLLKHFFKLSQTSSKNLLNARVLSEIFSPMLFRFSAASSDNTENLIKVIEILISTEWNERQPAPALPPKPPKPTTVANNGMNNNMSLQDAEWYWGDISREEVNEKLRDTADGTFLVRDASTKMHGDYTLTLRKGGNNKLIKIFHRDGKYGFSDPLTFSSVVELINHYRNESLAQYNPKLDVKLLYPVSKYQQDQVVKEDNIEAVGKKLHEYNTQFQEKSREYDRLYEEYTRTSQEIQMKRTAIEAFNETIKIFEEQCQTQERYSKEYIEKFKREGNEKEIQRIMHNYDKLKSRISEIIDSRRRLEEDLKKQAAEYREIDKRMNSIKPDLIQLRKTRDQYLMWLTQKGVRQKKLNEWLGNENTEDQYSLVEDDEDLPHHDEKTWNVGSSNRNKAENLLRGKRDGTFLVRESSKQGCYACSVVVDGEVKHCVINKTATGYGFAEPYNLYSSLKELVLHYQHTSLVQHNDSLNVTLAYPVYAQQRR

PI3K p110γ = PI3K p110γ (Homo sapiens (Human), UniProt P48736); assay: PI3K isoform biochemical assay, p110γ
PI3K p110γ, sequence (P48736 whole entry, canonical isoform): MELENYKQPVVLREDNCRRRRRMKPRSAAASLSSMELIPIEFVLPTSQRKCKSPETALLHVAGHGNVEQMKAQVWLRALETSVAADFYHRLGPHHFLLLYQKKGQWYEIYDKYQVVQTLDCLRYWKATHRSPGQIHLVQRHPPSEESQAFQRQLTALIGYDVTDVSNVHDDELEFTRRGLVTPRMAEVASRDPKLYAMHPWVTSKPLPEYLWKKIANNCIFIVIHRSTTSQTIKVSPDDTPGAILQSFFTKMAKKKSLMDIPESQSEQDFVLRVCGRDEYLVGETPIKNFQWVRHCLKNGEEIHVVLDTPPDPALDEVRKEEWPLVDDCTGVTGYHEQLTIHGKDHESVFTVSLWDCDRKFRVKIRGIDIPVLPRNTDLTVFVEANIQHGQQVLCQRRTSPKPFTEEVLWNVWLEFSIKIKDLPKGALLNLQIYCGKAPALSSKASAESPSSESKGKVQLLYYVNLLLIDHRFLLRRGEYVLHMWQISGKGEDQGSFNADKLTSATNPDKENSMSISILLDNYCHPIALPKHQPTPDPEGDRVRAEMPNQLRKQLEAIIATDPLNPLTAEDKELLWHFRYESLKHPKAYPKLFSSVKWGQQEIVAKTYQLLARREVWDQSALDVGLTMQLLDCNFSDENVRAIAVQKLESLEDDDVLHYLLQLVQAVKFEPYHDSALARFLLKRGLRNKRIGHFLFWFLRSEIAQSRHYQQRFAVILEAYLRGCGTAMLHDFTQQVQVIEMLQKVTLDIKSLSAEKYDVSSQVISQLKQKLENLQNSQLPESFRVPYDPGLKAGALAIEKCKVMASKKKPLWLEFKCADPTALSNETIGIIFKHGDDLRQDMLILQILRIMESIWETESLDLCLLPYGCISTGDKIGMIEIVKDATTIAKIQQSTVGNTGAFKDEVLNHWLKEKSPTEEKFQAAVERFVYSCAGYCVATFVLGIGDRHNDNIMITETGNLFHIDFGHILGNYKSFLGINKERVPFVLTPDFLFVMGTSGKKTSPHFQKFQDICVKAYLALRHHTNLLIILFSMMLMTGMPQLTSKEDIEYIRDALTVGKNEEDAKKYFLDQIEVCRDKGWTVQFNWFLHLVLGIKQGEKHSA

[1] = system: Rheumatoid Arthritis Synovial Fibroblast (RASF); assay: In vitro inhibition of rheumatoid arthritis synovial fibroblast (RASF) proliferation; type: cell-based
PC3 (Prostate Tumour) = assay: In vitro inhibition of tumour cell proliferation, PC3; type: cell-based
MCF7 (Breast Tumour) = assay: In vitro inhibition of tumour cell proliferation, MCF7; type: cell-based
A549 (Lung Tumour) = assay: In vitro inhibition of tumour cell proliferation, A549; type: cell-based
TNFα = assay: Inhibition of TNFα production from LPS-stimulated hPBMCs; type: cell-based, human; settings: hPBMCs stimulated with LPS; for inhibition at 1 µM: Homo sapiens, read-out: % Inhibition of Proinflammatory Cytokine Production at 1 uM, TNFα
Protocol: (§1) 2) Anti-Inflammatory Activity: Inhibition of the Production of Pro-Inflammatory Cytokines from Stimulated Human Peripheral Blood Mononuclear Cells (hPBMCs)
(§2) Compounds were tested at a concentration of 1 uM for cytokine release inhibition in hPBMCs stimulated with LPS (TNFα), PHA (IFNγ) and anti-CD3 (IL-17A, IL-17F, IL-21, IL-23): […]

IFNγ = assay: Inhibition of IFNγ production from PHA-stimulated hPBMCs; type: cell-based, human; settings: hPBMCs stimulated with PHA; for inhibition at 1 µM: Homo sapiens, read-out: % Inhibition of Proinflammatory Cytokine Production at 1 uM, IFNγ
Protocol: as §1, §2

IL-17A = assay: Inhibition of IL-17A production from anti-CD3-stimulated hPBMCs; type: cell-based, human; settings: for inhibition at 1 µM: Homo sapiens, hPBMCs stimulated with anti-CD3, read-out: % Inhibition of Proinflammatory Cytokine Production at 1 uM, IL-17A
Protocol: as §1, §2

IL-17F = assay: Inhibition of IL-17F production from anti-CD3-stimulated hPBMCs; type: cell-based, human; settings: for inhibition at 1 µM: Homo sapiens, hPBMCs stimulated with anti-CD3, read-out: % Inhibition of Proinflammatory Cytokine Production at 1 uM, IL-17F
Protocol: as §1, §2

IL-21 = assay: Inhibition of IL-21 production from anti-CD3-stimulated hPBMCs; type: cell-based, human; settings: for inhibition at 1 µM: Homo sapiens, hPBMCs stimulated with anti-CD3, read-out: % Inhibition of Proinflammatory Cytokine Production at 1 uM, IL-21
Protocol: as §1, §2

IL-23 = assay: Inhibition of IL-23 production from anti-CD3-stimulated hPBMCs; type: cell-based, human; settings: for inhibition at 1 µM: Homo sapiens, hPBMCs stimulated with anti-CD3, read-out: % Inhibition of Proinflammatory Cytokine Production at 1 uM, IL-23
Protocol: as §1, §2

[2] = hPBMCs stimulated with anti-CD3

PI3K p110β, sequence (P42338 whole entry, canonical isoform): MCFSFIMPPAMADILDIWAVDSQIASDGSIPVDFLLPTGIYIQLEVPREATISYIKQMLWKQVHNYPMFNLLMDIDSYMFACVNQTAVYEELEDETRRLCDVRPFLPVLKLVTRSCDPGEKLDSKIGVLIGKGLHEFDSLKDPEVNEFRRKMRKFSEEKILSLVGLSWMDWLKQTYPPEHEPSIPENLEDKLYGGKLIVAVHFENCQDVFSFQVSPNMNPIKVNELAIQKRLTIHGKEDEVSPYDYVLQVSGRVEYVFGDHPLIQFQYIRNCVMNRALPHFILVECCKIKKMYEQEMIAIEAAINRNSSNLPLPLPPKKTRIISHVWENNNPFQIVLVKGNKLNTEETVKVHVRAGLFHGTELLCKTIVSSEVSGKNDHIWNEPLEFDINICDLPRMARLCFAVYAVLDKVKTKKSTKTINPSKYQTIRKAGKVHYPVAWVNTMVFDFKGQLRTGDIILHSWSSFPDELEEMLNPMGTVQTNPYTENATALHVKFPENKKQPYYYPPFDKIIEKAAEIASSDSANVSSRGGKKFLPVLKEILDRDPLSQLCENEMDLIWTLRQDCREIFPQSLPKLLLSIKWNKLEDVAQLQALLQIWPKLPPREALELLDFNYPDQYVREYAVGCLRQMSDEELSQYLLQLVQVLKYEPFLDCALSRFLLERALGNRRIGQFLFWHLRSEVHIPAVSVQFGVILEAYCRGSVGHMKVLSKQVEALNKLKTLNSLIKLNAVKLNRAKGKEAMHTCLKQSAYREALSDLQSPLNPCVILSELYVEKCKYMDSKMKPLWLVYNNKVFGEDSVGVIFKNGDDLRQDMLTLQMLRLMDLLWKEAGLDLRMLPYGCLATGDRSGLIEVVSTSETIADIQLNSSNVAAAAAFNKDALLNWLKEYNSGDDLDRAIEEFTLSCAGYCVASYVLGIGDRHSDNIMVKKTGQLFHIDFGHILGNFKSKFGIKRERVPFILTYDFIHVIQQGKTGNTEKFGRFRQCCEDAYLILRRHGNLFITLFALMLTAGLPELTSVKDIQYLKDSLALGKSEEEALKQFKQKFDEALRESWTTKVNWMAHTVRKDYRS
PI3K p110β, sequence (P27986 whole entry partner, canonical isoform): as the sequence (P27986 whole entry partner, canonical isoform) above
PI3K p110α, sequence (P42336 whole entry, canonical isoform): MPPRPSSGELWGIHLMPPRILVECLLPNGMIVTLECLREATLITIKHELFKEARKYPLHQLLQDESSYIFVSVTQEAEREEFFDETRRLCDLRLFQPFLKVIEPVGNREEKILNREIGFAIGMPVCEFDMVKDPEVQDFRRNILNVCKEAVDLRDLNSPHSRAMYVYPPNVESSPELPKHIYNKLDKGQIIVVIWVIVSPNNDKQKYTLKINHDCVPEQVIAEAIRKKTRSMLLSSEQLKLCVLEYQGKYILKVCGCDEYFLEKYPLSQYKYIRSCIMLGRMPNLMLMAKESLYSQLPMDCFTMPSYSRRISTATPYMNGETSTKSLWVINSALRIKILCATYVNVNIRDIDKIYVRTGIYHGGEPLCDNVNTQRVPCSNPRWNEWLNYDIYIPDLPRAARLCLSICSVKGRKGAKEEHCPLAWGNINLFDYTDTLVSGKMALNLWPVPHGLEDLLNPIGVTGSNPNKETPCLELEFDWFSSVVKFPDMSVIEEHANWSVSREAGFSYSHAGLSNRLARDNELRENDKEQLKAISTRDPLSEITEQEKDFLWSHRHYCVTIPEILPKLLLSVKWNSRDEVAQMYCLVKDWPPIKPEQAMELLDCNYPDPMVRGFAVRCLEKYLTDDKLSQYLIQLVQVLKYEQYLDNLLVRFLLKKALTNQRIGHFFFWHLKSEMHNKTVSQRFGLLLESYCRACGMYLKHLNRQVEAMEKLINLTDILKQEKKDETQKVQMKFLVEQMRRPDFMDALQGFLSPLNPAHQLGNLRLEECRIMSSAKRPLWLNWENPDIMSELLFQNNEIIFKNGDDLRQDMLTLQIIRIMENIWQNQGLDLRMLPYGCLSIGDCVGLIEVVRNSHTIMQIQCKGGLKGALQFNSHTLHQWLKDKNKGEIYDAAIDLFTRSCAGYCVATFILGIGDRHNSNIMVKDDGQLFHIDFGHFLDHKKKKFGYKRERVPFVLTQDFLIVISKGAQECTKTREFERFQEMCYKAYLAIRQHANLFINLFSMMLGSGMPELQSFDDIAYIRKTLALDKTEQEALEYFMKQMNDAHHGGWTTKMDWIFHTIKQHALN
PI3K p110α, sequence (P27986 whole entry partner, canonical isoform): as the sequence (P27986 whole entry partner, canonical isoform) above

Molecule | IC50 (PI3K p110α) [nM] | IC50 (PI3K p110β) [nM] | IC50 (PI3K p110δ) [nM] | IC50 (PI3K p110γ) [nM] | IC50 ([1]; Fibroblast) [nM] | IC50 (PC3 (Prostate Tumour); Homo sapiens, PC-3) [nM] | IC50 (MCF7 (Breast Tumour); Homo sapiens) [nM] | IC50 (A549 (Lung Tumour); Homo sapiens) [nM] | also measured
c1cc(-c2nc(N3CCOCC3)c3sc4ncccc4c3n2)c2cc[nH]c2c1 [A, 2-(1H-Indol-4-yl)-4-morpholin-4-yl-pyrido[3′,2′:4,5]thieno[3,2-d]pyrimidine] | 54 | 137 | 15 | 873 | 1350 | 3010 | 331 | 151 | –
c1cc(-c2nc(N3CCOCC3)c3oc4ncccc4c3n2)c2cc[nH]c2c1 [B, 2-(1H-Indol-4-yl)-4-morpholin-4-yl-pyrido[3′,2′:4,5]furo[3,2-d]pyrimidine] | 159 | 19 | 6 | 317 | 817 | 1340 | 145 | 229 | inhibition at 1 µM (TNFα): 26%; inhibition at 1 µM (IFNγ): 73%; inhibition at 1 µM (IL-17A): 99%; inhibition at 1 µM (IL-17F): 96%; inhibition at 1 µM (IL-21): 96%; inhibition at 1 µM (IL-23): 94%
c1cc(-c2nc(N3CCOCC3)c3oc4ncc(CN5CCCCC5)cc4c3n2)c2cc[nH]c2c1 [Compound I, 2-(1H-Indol-4-yl)-4-morpholin-4-yl-8-piperidin-1-ylmethyl-pyrido[3′,2′:4,5]furo[3,2d]pyrimidine] | – | – | – | – | 5720 | – | – | – | inhibition at 1 µM (TNFα): 61%; inhibition at 1 µM (IFNγ): 80%; inhibition at 1 µM (IL-17A): 95%; inhibition at 1 µM (IL-17F): 95%; inhibition at 1 µM (IL-21): 96%; inhibition at 1 µM (IL-23): 90%
c1cnc2oc3c(N4CCOCC4)nc(-c4ccnc5[nH]ccc45)nc3c2c1 [D, 4-Morpholin-4-yl-2-(1H-pyrrolo[2,3-b]pyridin-4-yl)-pyrido[3′,2′:4,5]furo[3,2-d]pyrimidine] | 104 | 57 | 33 | 103 | – | – | – | – | –
c1cc(-c2cnc3oc4c(N5CCOCC5)nc(-c5cccc6[nH]ccc56)nc4c3c2)c2cc[nH]c2c1 [E, 2,8-Bis-(1H-indol-4-yl)-4-morpholin-4-yl-pyrido[3′,2′:4,5]furo[3,2-d]pyrimidine] | 88 | 69 | 7 | 627 | – | – | – | – | –
CN(C)C(=O)/C=C/c1cnc2oc3c(N4CCOCC4)nc(-c4cccc5[nH]ccc45)nc3c2c1 [G, (E)-3-[2-(1H-Indol-4-yl)-4-morpholin-4-yl-pyrido[3′,2′:4,5]furo[3,2-d]pyrimidin-8-yl]-N,N-dimethylacrylamide] | 223 | 83 | 5 | 1660 | – | 3770 | 127 | 186 | –
CN(C)Cc1cnc2oc3c(N4CCOCC4)nc(-c4cccc5[nH]ccc45)nc3c2c1 [H, [2-(1H-Indol-4-yl)-4-morpholin-4-yl-pyrido[3′,2′:4,5]furo[3,2-d]pyrimidin-8-ylmethyl]-dimethyl-amine] | 398 | 63 | 6 | 213 | 1900 | 3030 | 165 | 466 | inhibition at 1 µM (TNFα): 75%; inhibition at 1 µM (IFNγ): 87%; inhibition at 1 µM (IL-17A): 99%; inhibition at 1 µM (IL-17F): 96%; inhibition at 1 µM (IL-21): 96%; inhibition at 1 µM (IL-23): 93%
CN1CCN(Cc2cnc3oc4c(N5CCOCC5)nc(-c5cccc6[nH]ccc56)nc4c3c2)CC1 [J, 2-(1H-Indol-4-yl)-8-(4-methyl-piperazin-1-ylmethyl)-4-morpholin-4-yl-pyrido[3′,2′:4,5]furo[3,2-d]pyrimidine] | 680 | 277 | 26 | 1040 | – | – | – | – | –
c1cc(-c2nc(N3CCOCC3)c3oc4ncc(CN5CCOCC5)cc4c3n2)c2cc[nH]c2c1 [K, 2-(1H-Indol-4-yl)-4-morpholin-4-yl-8-morpholin-4-ylmethyl-pyrido[3′,2′:4,5]furo[3,2-d]pyrimidine] | 355 | 64 | 6 | 2610 | 3020 | 3340 | 352 | 682 | –
COCCN(C)Cc1cnc2oc3c(N4CCOCC4)nc(-c4cccc5[nH]ccc45)nc3c2c1 [L, [2-(1H-Indol-4-yl)-4-morpholin-4-yl-pyrido[3′,2′:4,5]furo[3,2-d]pyrimidin-8-ylmethyl]-(2-methoxy-ethyl)-methyl-amine] | 604 | 111 | 21 | 1820 | – | 3240 | 119 | 1600 | –
c1cc(-c2nc(N3CCOCC3)c3oc4ncc(N5CCOCC5)cc4c3n2)c2cc[nH]c2c1 [M, 2-(1H-Indol-4-yl)-4,8-di-morpholin-4-yl-pyrido[3′,2′:4,5]furo[3,2-d]pyrimidine] | 96 | 25 | 10 | 219 | 1610 | – | – | – | –
N#CCCN1CCN(Cc2cnc3oc4c(N5CCOCC5)nc(-c5cccc6[nH]ccc56)nc4c3c2)CC1 [R, 3-{4-[2-(1H-Indol-4-yl)-4-morpholin-4-yl-pyrido[3′,2′:4,5]furo[3,2-d]pyrimidin-8-ylmethyl]-piperazin-1-yl}-propionitrile] | 597 | 131 | 22 | 2540 | – | – | – | – | –
(E)-1-(4-Methyl-piperazin-1-yl)-3-[4-morpholin-4-yl-2-(1H-pyrrolo[2,3-b]pyridin-4-yl)-pyrido[3′,2′:4,5]furo[3,2-d]pyrimidin-8-yl]-propenone | 127 | 109 | 6 | 269 | – | – | – | – | % Inhibition of Proinflammatory Cytokine Production at 1 uM, TNFα (TNFα): 74%; % Inhibition of Proinflammatory Cytokine Production at 1 uM, IFNγ (IFNγ): 67%; % Inhibition of Proinflammatory Cytokine Production at 1 uM, IL-17A (IL-17A; [2]): 77%; % Inhibition of Proinflammatory Cytokine Production at 1 uM, IL-17F (IL-17F; [2]): 74%; % Inhibition of Proinflammatory Cytokine Production at 1 uM, IL-21 (IL-21; [2]): 82%; % Inhibition of Proinflammatory Cytokine Production at 1 uM, IL-23 (IL-23; [2]): 93%; IC50 [1]: 2240 nM; IC50 (PC3 (Prostate Tumour)): 7290 nM; IC50 (MCF7 (Breast Tumour)): 215 nM; IC50 (A549 (Lung Tumour)): 1150 nM
